Reference: patent publication US10124065B2, “Lipids and lipid compositions for the delivery of active agents” (Novartis AG, priority 2013, dated 2018)

How the values were obtained:
[1] = pKa measurement of cationic lipid (TNS fluorescence); assay type: physicochemical; conditions: pKa of the cationic lipid of formula (I); Table 4; listed as Ex. 38
Protocol: Unless indicated otherwise, all pKa's referred to herein were measured at standard temperature and pressure. Also, unless otherwise indicated, all references to pKa are references to pKa measured using the following technique. 2 mM solution of lipid in ethanol was prepared by weighing the lipid and then dissolving it in ethanol. 0.3 mM solution of fluorescent probe TNS in ethanol:methanol 9:1 was prepared by first making 3 mM solution of TNS in methanol and then diluting to 0.3 mM with ethanol. An aqueous buffer containing 200 mM sodium phosphate dibasic and 100 mM citric acid was prepared. […] Using the Hamilton Microlab Star high throughput liquid handler and Hamilton run control software Software, 7.5 uL of probe/lipid mix were added to 242.5 uL of buffer in a 1 mL 96 well plate (model NUNC 260252, […] Nunc International). This was done with all twelve buffers. After mixing in 1 mL 96 well plate, 100 uL of each probe/lipid/buffer mixture was transferred to a 250 uL black with clear bottom 96 well plate (model COSTAR 3904, Corning). The fluorescence measurements are carried out on the SpectraMax M5 spectrophotometer using software SoftMax pro 5.2 and following parameters: After the measurement, the background fluorescence value of an empty well on the 96 well plate was subtracted from each probe/lipid/buffer mixture. The fluorescence intensity values were then normalized to the value at lowest pH. The normalized fluorescence intensity vs. pH chart was then plotted in the Microsoft Excel software. The twelve points were connected with a smooth line. The point on the line at which the normalized fluorescence intensity was equal to 0.5 was found. […] The pKa determined using this method is precise to about 0.1 pKa units.

[2] = Particle size of lipid nanoparticle (dynamic light scattering, Malvern Zetasizer); assay type: physicochemical
Outline: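 Sizes are average diameters of fully formed nanoparticles measured by dynamic light scattering. Samples were diluted in PBS to a count rate of about 200–400 kcts. Values are intensity-weighted Z-average sizes.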

pKa [1] | Size (nm) ([2]; FVII siRNA LNP, Chol/DSPC/PEG-DMG, molar ratio 45/44/9/2, Z-average) | Size (nm) ([2]; FVII siRNA LNP, Chol/DSPC/S010, molar ratio 45/44/9/2, Z-average) | Size (nm) ([2]; PLK1-424 siRNA LNP, Chol/DSPC/S010 45/44/9/2) | Size (nm) ([2]; leptin mRNA lipid nanoparticles) | Compound
5.9 | – | – | – | – | CCCCC/C=C\C/C=C\CCCCCCCC(=O)OCCCCOc1cc(CN(C)C)cc(OCCCCOC(=O)CCCCCCC/C=C\C/C=C\CCCCC)c1 [Example 38, (9Z,9′Z,12Z,12′Z)-((5-((dimethylamino)methyl)-1,3-phenylene)bis(oxy))bis(butane-4,1-diyl)bis(octadeca-9,12-dienoate)]
– | 108.4 nm | 123.8 nm | 116.3 nm | 127.8 nm | CCCCCCCCCCOC(=O)CCCCCCCOc1cc(CN(C)C)cc(OCCCCCCCC(=O)OCCCCCCCCCC)c1 [Example 57, didecyl 8,8′-((5-((dimethylamino)methyl)-1,3-phenylene)bis(oxy))dioctanoate]
